Measured values from patent US20080051429A1, “USE OF 4-AMINO-PIPERIDINES FOR TREATING SLEEP DISORDERS” (priority 2006, published 2008).

Experiments:
Test in all cases: R-SAT broad profiling
Type in all cases: cell-based
D5 = molecular target: T1, D5 (Homo sapiens, UniProt P21918); details: read-out: pEC50/pIC50 (converted)
T1 construct: expressed in transfected cells; host or cells: NIH3T3
Experimental: (§1) The functional receptor assay, Receptor Selection and Amplification Technology (R-SAT), was used (with minor modifications from that previously described U.S. Pat. No. 5,707,798) to screen compounds for efficacy at the 5-HT2A receptor. Briefly, NIH3T3 cells were grown in 96 well tissue culture plates to 70-80% confluence. Cells were transfected for 12-16 hours with plasmid DNAs using superfect (Qiagen Inc.) as per manufacture's protocols. R-SAT's were generally performed with 50 ng/well of receptor and 20 ng/well of Beta-galactosidase plasmid DNA. All receptor and G-protein constructs used were in the pSI mammalian expression vector (Promega Inc) as described in U.S. Pat. No. 5,707,798. The 5HT2A receptor gene was amplified by nested PCR from brain cDNA using the oligodeoxynucleotides based on the published sequence (see Saltzman et. al. Biochem. Biophys. Res. Comm. 181:1469-78 (1991)). Large-scale transfections, cells were transfected for 12-16 hours, then trypsinized and frozen in DMSO. Frozen cells were later thawed, plated at 10,000-40,000 cells per well of a 96 well plate that contained drug. With both methods, cells were then grown in a humidified atmosphere with 5% ambient CO2 for five days. Media was then removed from the plates and marker gene activity was measured by the addition of the beta-galactosidase substrate ONPG (in PBS with 5% NP-40). The resulting colorimetric reaction was measured in a spectrophotometric plate reader (Titertek Inc.)at […]. All data were analyzed using the computer program XLFit (IDBSm). Efficacy is the percent maximal repression compared to repression by a control compound (ritanserin in the case of 5HT2A). pIC50 is the negative of the log(IC50), where IC50 is the calculated concentration in Molar that produces 50% maximal repression.
(§2) The R-SAT assay (described above in example 136) was used to investigate the selectivity of 2-(4-Methoxyphenyl)-N-(4-methylbenzyl)-N-(1-methylpiperidin-4-yl)acetamide hydrochloride.

m5 = molecular target: T2, m5 (Homo sapiens, UniProt P08912); details: read-out: pEC50/pIC50 (converted)
T2 construct: expressed in transfected cells; host or cells: NIH3T3
T2 sequence (P08912 1-532): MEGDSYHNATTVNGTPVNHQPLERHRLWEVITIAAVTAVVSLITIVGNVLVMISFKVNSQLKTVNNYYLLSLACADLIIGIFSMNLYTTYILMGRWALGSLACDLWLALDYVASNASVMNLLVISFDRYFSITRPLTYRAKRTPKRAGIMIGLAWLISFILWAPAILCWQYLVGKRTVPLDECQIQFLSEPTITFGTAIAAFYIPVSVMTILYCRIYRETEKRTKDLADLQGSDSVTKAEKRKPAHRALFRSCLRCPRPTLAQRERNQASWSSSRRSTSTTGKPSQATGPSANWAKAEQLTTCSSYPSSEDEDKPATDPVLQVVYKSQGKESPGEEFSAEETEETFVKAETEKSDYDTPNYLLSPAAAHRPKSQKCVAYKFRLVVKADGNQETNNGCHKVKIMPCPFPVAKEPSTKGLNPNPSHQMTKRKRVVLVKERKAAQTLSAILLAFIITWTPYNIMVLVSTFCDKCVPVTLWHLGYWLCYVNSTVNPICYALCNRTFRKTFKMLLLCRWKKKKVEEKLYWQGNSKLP
Experimental: as §1, §2

m1 = molecular target: T3, m1 (Homo sapiens, UniProt P11229); details: read-out: pEC50/pIC50 (converted)
T3 construct: expressed in transfected cells; host or cells: NIH3T3
T3 sequence (P11229 1-460): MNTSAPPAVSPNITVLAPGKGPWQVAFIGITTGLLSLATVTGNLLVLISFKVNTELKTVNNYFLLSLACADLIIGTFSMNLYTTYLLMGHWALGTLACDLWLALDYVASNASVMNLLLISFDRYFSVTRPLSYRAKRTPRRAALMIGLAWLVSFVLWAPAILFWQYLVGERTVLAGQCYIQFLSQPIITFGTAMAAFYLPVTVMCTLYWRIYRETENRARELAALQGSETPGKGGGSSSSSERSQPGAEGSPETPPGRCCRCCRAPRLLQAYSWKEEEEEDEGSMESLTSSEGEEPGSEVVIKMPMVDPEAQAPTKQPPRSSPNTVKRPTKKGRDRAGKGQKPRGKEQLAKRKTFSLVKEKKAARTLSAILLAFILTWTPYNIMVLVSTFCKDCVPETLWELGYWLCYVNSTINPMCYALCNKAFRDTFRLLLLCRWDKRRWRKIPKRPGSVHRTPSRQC
Experimental: as §1, §2

Vasopressin1A = molecular target: T4, Vasopressin1A (Homo sapiens, UniProt P37288); details: agonist; read-out: pEC50/pIC50 (converted)
T4 construct: expressed in transfected cells; host or cells: NIH3T3
Experimental: as §1, §2

Histamine 1 = molecular target: T5, Histamine 1 (Homo sapiens, UniProt P35367); details: read-out: pEC50/pIC50 (converted)
T5 construct: expressed in transfected cells; host or cells: NIH3T3
Experimental: as §1, §2

m2 = molecular target: T6, m2 (Homo sapiens, UniProt P08172); details: read-out: pEC50/pIC50 (converted)
T6 construct: expressed in transfected cells; host or cells: NIH3T3
T6 sequence (P08172 1-466): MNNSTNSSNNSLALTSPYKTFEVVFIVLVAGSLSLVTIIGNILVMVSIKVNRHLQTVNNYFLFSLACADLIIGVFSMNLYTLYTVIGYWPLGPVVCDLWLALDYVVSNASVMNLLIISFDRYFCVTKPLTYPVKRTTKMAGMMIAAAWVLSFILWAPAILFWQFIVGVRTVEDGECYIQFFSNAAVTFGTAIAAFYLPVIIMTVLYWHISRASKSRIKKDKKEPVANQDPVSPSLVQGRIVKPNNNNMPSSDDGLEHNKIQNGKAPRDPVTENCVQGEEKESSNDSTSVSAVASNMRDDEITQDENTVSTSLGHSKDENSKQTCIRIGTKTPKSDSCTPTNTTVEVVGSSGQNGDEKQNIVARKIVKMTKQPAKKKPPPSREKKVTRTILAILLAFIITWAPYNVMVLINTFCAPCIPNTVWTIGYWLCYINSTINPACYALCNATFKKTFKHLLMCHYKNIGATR
Experimental: as §1, §2

D3 = molecular target: T7, D3 (Homo sapiens, UniProt P35462); details: read-out: pEC50/pIC50 (converted)
T7 construct: expressed in transfected cells; host or cells: NIH3T3
Experimental: as §1, §2

5-HT7 = molecular target: T8, 5-HT7 (Homo sapiens, UniProt P34969); details: read-out: pEC50/pIC50 (converted)
T8 construct: expressed in transfected cells
Experimental: as §1, §2

T1 sequence (P21918 whole entry): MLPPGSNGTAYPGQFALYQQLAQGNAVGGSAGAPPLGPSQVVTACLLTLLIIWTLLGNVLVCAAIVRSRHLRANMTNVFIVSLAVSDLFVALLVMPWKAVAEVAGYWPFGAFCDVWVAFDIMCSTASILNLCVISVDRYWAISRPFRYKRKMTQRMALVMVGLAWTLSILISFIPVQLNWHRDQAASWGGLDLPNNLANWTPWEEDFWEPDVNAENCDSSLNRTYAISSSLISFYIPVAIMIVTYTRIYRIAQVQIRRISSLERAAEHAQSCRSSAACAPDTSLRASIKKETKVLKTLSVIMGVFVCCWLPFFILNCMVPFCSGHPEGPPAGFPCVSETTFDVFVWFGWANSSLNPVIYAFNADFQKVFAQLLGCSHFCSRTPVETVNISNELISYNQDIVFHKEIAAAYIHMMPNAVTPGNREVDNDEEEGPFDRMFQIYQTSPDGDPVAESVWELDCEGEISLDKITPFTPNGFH
T8 sequence (P34969 whole entry, species assumed): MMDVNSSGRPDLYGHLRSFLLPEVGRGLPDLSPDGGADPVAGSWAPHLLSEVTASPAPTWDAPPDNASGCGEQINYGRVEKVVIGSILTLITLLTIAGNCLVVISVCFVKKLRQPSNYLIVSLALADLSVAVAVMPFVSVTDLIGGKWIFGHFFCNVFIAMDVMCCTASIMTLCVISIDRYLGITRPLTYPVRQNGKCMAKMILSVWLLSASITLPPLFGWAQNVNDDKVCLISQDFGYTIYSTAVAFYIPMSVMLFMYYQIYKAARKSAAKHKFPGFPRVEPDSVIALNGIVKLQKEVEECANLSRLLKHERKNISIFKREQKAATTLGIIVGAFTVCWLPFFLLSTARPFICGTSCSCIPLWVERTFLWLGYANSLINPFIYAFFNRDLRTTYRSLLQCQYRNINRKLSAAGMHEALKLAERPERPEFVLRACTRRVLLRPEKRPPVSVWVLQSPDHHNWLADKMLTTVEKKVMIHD
T5 sequence (P35367 whole entry): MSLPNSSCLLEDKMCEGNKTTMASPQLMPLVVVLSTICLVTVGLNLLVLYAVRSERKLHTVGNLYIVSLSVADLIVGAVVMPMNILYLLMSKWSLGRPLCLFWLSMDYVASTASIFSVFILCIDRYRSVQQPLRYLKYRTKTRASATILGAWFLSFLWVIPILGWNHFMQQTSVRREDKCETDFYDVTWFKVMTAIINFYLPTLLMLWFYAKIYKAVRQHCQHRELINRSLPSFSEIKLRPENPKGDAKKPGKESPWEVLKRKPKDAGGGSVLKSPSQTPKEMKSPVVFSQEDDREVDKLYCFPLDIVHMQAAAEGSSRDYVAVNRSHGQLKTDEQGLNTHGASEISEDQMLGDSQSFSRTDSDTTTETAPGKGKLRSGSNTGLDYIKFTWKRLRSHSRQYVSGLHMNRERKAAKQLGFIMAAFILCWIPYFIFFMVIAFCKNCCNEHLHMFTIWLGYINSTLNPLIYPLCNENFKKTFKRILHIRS
T7 sequence (P35462 whole entry): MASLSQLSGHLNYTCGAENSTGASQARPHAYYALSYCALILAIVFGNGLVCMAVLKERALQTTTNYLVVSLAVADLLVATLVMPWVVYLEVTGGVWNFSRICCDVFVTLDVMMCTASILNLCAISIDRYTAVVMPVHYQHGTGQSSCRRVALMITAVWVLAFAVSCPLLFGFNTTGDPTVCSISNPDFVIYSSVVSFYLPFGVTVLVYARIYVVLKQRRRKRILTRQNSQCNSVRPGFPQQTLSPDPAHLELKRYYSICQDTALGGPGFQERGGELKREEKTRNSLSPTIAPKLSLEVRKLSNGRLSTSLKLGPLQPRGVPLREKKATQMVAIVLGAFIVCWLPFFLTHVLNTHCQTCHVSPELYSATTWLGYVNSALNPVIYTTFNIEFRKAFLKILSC
T4 sequence (P37288 whole entry): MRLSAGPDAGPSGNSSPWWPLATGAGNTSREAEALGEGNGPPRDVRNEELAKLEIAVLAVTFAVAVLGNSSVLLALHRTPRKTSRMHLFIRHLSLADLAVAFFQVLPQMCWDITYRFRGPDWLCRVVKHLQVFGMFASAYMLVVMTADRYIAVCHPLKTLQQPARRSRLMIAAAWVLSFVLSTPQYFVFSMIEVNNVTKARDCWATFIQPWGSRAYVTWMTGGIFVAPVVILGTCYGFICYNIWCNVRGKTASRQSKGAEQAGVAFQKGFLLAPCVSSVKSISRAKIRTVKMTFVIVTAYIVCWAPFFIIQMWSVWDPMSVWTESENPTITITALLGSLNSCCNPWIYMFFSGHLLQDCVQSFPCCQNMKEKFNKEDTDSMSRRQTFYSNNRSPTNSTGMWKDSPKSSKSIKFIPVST

COc1ccc(CC(=O)N(Cc2ccc(C)cc2)C2CCN(C)CC2)cc1 [Example 50ELH27, 2-(4-Methoxyphenyl)-N-(4-methylbenzyl)-N-(1-methylpiperidin-4-yl)acetamide]
EC50 (D5; agonist): > 3.16 µM | IC50 (D5; antagonist): > 3.16 µM | EC50 (m5; agonist): > 3.16 µM | IC50 (m5; antagonist): > 3.16 µM | EC50 (m1; agonist): > 3.16 µM | IC50 (m1; antagonist): > 3.16 µM | EC50 (Vasopressin1A): > 3.16 µM | IC50 (Histamine 1; Inv. Agonist): > 3.16 µM | EC50 (Histamine 1; agonist): > 3.16 µM | EC50 (m2; agonist): > 3.16 µM | IC50 (m2; antagonist): > 3.16 µM | EC50 (D3; agonist): > 3.16 µM | IC50 (D3; antagonist): > 3.16 µM | EC50 (5-HT7; agonist): > 3.16 µM | IC50 (5-HT7; inverse agonist): 0.126 µM
